Results reported in patent publication US20240226287A1, “NOVEL LIPID COMPOUND AND LIPID NANOPARTICLE COMPOSITION COMPRISING THE SAME” (KOREA INSTITUTE OF SCIENCE AND TECHNOLOGY, priority 2022, published 2024).

These compounds were tested on Renilla Luciferase (R/L) mRNA (assay: Delivery efficiency: R/L protein expression after i.d. injection of mRNA-LNP into mouse ears (luminescence)). Conditions: conclusion from FIGS. 4 to 8; replacing cholesterol/butyl lithocholate in LNP.
Assay type: in vivo, ICR mice
Method: mRNA-LNP was injected into the ears of ICR mice by I.D. in an amount of 5 μg/20 μl based on RNA to identify expression.
The experimental process is as follows. Each experimental group was prepared in a dose of 5 μg/20 μl based on RNA and then injected into each ear of mice by I.D. Thereafter, the expression was identified according to the maximum expression time of a target protein. In the case of R/L on which the experiment was actually carried out, expression and maintenance were identified according to two time periods which are 6 hours and 24 hours.
After anesthesia using an individual respiratory anesthesia machine, a drug to be administered that is suitable for the experimental condition was injected via an insulin syringe. Thereafter, euthanasia was performed using CO2 at each corresponding time, and then ears were cut off. While dipping the cut ears in 300 μl of 1× Renilla Lyswas buffer, ears were completely crushed using scissors and a homogenizer instrument. Thereafter, 20 μl was taken from the mixture solution, transferred to a white 96-well plate, and added with 100 μl of Promega's Renilla luciferase assay substrate, and then luminescence was measured to compare expression.

| SMILES | effect as substitute for the structure-retaining compound (R/L expression of the LNP) |
| --- | --- |
| C[C@H](CCC(=O)O)[C@H]1CC[C@H]2[C@@H]3CC[C@@H]4CC(=O)CC[C@]4(C)[C@H]3CC[C@]12C [3-oxo-5β-cholanoic acid] | excellent effects |
| CC1=C(/C=C/C(C)=C/C=C/C(C)=C/C=C/C=C(C)/C=C/C=C(C)/C=C/C2=C(C)CCCC2(C)C)C(C)(C)CCC1 [beta-carotene] | excellent effects |
| O=c1cc(-c2ccc(O)c(O)c2)oc2cc(O)cc(O)c12 [luteolin] | excellent effects |
